According to PubChem BioAssay AID248 (DTP/NCI, 2004):
“And” between values parts separate entries of the source, which are not always exact repeats. Identical values can stand only once. Inconclusive results and toxic doses are left out.

Test system: L1210 leukemia ip in BDF1 mice, survival T/C
Assay: NCI In Vivo Anticancer Drug Screen. Data for tumor model L1210 Leukemia (intraperitoneal) in B6D2F1 (BDF1) mice
Details: endpoint: mean survival time, higher = longer survival
In short: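 Value reflects the ratio of survival in compound-treated mice to survival in vehicle-treated controls, with both groups carrying the same transplanted tumor.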

[1] = dose: 100.0 mg/kg/injection, schedule: Q04DX003 (ip), vehicle: saline
[2] = dose: 200.0 mg/kg/injection, schedule: Q04DX003 (ip), vehicle: saline
[3] = dose: 400.0 mg/kg/injection, schedule: Q04DX003 (ip), vehicle: saline
[4] = dose: 100.0 mg/kg/injection, schedule: Q01DX001 (ip), vehicle: saline
[5] = dose: 200.0 mg/kg/injection, schedule: Q01DX001 (ip), vehicle: saline
[6] = dose: 400.0 mg/kg/injection, schedule: Q01DX001 (ip), vehicle: saline
[7] = dose: 100.0 mg/kg/injection, schedule: Q04DX002 (ip), vehicle: saline with Tween-80
[8] = dose: 400.0 mg/kg/injection, schedule: Q04DX002 (ip), vehicle: saline with Tween-80

SMILES: CC(OCCO)C1CCC2C3CCC4=CC(=O)CCC4(C)C3C(O)C(C)C12C (configuration not stated)
- T/C (dose: 50.0 mg/kg/injection, schedule: Q01DX001 (sc), vehicle: steriod suspending solution): 102 % of control
- T/C (dose: 100.0 mg/kg/injection, schedule: Q01DX001 (sc), vehicle: steriod suspending solution): 100 % of control
- T/C (dose: 200.0 mg/kg/injection, schedule: Q01DX001 (sc), vehicle: steriod suspending solution): 110 % of control
- T/C (dose: 400.0 mg/kg/injection, schedule: Q01DX001 (sc), vehicle: steriod suspending solution): 102 % of control

SMILES: CSCC(C)O (configuration not stated)
- T/C [1]: 109 % of control
- T/C [2]: 115 % of control
- T/C [3]: 109 % of control

SMILES: CC1(C)Oc2nc(N)nc(N)c2C1c1ccc(Cl)cc1 (configuration not stated)
- T/C (dose: 100.0 mg/kg/injection, schedule: Q04DX003 (ip), vehicle: Klucel (hydroxypropylcellulose) (HPC)): 106 % of control
- T/C (dose: 200.0 mg/kg/injection, schedule: Q04DX003 (ip), vehicle: Klucel (hydroxypropylcellulose) (HPC)): 97 % of control
- T/C (dose: 400.0 mg/kg/injection, schedule: Q04DX003 (ip), vehicle: Klucel (hydroxypropylcellulose) (HPC)): 103 % of control

SMILES: OCCOCCN1CCN(CC/C=C2\c3ccccc3Sc3ccc(C(F)(F)F)cc32)CC1
- T/C (dose: 1.56 mg/kg/injection, schedule: Q01DX009 (ip), vehicle: saline): 104 % of control
- T/C (dose: 1.56 mg/kg/injection, schedule: Q04DX003 (ip), vehicle: saline): 100 % of control
- T/C (dose: 2.5 mg/kg/injection, schedule: Q01DX009 (ip), vehicle: saline): 98 % of control
- T/C (dose: 3.12 mg/kg/injection, schedule: Q01DX009 (ip), vehicle: saline): 111 % of control
- T/C (dose: 3.12 mg/kg/injection, schedule: Q04DX003 (ip), vehicle: saline): 94 % of control
- T/C (dose: 5.0 mg/kg/injection, schedule: Q01DX009 (ip), vehicle: saline): 108 % of control
- T/C (dose: 6.25 mg/kg/injection, schedule: Q01DX009 (ip), vehicle: saline): 106 % of control
- T/C (dose: 6.25 mg/kg/injection, schedule: Q04DX003 (ip), vehicle: saline): 101 % of control
- T/C (dose: 6.9 mg/kg/injection, schedule: Q01DX015 (ip), vehicle: saline): 115 % of control
- T/C (dose: 8.0 mg/kg/injection, schedule: Q04DX003 (ip), vehicle: saline with Tween-80): 116 % of control
- T/C (dose: 9.2 mg/kg/injection, schedule: Q01DX009 (ip), vehicle: saline): 103 % of control
- T/C (dose: 10.0 mg/kg/injection, schedule: Q01DX009 (ip), vehicle: saline): 117 % of control
- T/C (dose: 10.3 mg/kg/injection, schedule: Q01DX015 (ip), vehicle: saline): 105 % of control
- T/C (dose: 14.0 mg/kg/injection, schedule: Q01DX009 (ip), vehicle: saline): 117 % of control
- T/C (dose: 20.0 mg/kg/injection, schedule: Q01DX009 (ip), vehicle: saline): 117 % of control
- T/C (dose: 21.0 mg/kg/injection, schedule: Q01DX009 (ip), vehicle: saline): 88 % of control
- T/C (dose: 25.0 mg/kg/injection, schedule: Q01DX001 (ip), vehicle: saline): 116 % of control
- T/C (dose: 40.0 mg/kg/injection, schedule: Q01DX009 (ip), vehicle: saline): 96 % of control
- T/C (dose: 50.0 mg/kg/injection, schedule: Q01DX001 (ip), vehicle: saline): 105 % of control and 114 % of control
- T/C [4]: 108 % of control
- T/C [1]: 123 % of control

SMILES: O=[N+]([O-])c1ccc(O)c(I)c1
- T/C [4]: 97 % of control
- T/C [1]: 100 % of control
- T/C [5]: 98 % of control
- T/C [2]: 105 % of control
- T/C [6]: 95 % of control
- T/C [3]: 102 % of control

SMILES: O=C(c1cccs1)C1Cc2ccccc2C1=O (configuration not stated)
- T/C (dose: 100.0 mg/kg/injection, schedule: Q01DX009 (ip), vehicle: saline sonified): 98 % of control
- T/C (dose: 100.0 mg/kg/injection, schedule: Q04DX003 (ip), vehicle: saline sonified): 94 % of control
- T/C (dose: 200.0 mg/kg/injection, schedule: Q01DX009 (ip), vehicle: saline sonified): 95 % of control
- T/C (dose: 200.0 mg/kg/injection, schedule: Q04DX003 (ip), vehicle: saline sonified): 92 % of control
- T/C (dose: 400.0 mg/kg/injection, schedule: Q01DX009 (ip), vehicle: saline sonified): 101 % of control
- T/C (dose: 400.0 mg/kg/injection, schedule: Q04DX003 (ip), vehicle: saline sonified): 94 % of control

SMILES: ClCCN(CCCl)CCNc1ccnc2cc(Cl)ccc12
- T/C (dose: 5.0 mg/kg/injection, schedule: Q01DX001 (ip), vehicle: saline): 100 % of control
- T/C (dose: 10.0 mg/kg/injection, schedule: Q01DX001 (ip), vehicle: saline): 108 % of control
- T/C (dose: 20.0 mg/kg/injection, schedule: Q01DX001 (ip), vehicle: saline): 117 % of control
- T/C (dose: 40.0 mg/kg/injection, schedule: Q01DX001 (ip), vehicle: saline): 116 % of control

SMILES: O=C1C(O)=C(c2ccccc2C(=O)O)C(=O)C(O)=C1c1ccccc1C(=O)O
- T/C (dose: 25.0 mg/kg/injection, schedule: Q01DX009 (ip), vehicle: saline with Tween-80): 101 % of control
- T/C (dose: 50.0 mg/kg/injection, schedule: Q01DX009 (ip), vehicle: saline with Tween-80): 101 % of control
- T/C (dose: 50.0 mg/kg/injection, schedule: Q04DX002 (ip), vehicle: saline with Tween-80): 102 % of control
- T/C (dose: 100.0 mg/kg/injection, schedule: Q01DX009 (ip), vehicle: saline with Tween-80): 96 % of control
- T/C [7]: 98 % of control and 109 % of control
- T/C (dose: 200.0 mg/kg/injection, schedule: Q04DX002 (ip), vehicle: saline with Tween-80): 102 % of control and 113 % of control
- T/C [8]: 98 % of control and 104 % of control

SMILES: CN(C)N=Nc1ccc(S(=O)(=O)Nc2ncccn2)cc1
- T/C [7]: 114 % of control
- T/C (dose: 264.0 mg/kg/injection, schedule: Q04DX003 (ip), vehicle: saline with Tween-80): 100 % of control
- T/C [8]: 177 % of control
- T/C (dose: 400.0 mg/kg/injection, schedule: Q04DX003 (ip), vehicle: saline with Tween-80): 105 % of control
- T/C [3]: 176 % of control
- T/C (dose: 600.0 mg/kg/injection, schedule: Q04DX003 (ip), vehicle: saline): 124 % of control

SMILES: COc1cc(/C=N/N=C(\N)N[N+](=O)[O-])cc(OC)c1OC
- T/C (dose: 100.0 mg/kg/injection, schedule: Q01DX001 (ip), vehicle: saline with Tween-80): 114 % of control
- T/C (dose: 200.0 mg/kg/injection, schedule: Q01DX001 (ip), vehicle: saline with Tween-80): 97 % of control
- T/C (dose: 400.0 mg/kg/injection, schedule: Q01DX001 (ip), vehicle: saline with Tween-80): 96 % of control

SMILES: O=C(Nc1cccc(F)c1)Oc1ccc(OCc2ccccc2)cc1
- T/C (dose: 100.0 mg/kg/injection, schedule: Q04DX002 (ip), vehicle: saline): 101 % of control
- T/C (dose: 200.0 mg/kg/injection, schedule: Q04DX002 (ip), vehicle: saline): 90 % of control
- T/C (dose: 400.0 mg/kg/injection, schedule: Q04DX002 (ip), vehicle: saline): 90 % of control

SMILES: CCCCCCCCCc1c(C)[nH]c2ccccc2c1=O
- T/C (dose: 100.0 mg/kg/injection, schedule: Q01DX009 (ip), vehicle: Klucel (hydroxypropylcellulose) (HPC)): 94 % of control
- T/C [1]: 100 % of control
- T/C (dose: 200.0 mg/kg/injection, schedule: Q01DX009 (ip), vehicle: Klucel (hydroxypropylcellulose) (HPC)): 86 % of control
- T/C [2]: 104 % of control
- T/C (dose: 400.0 mg/kg/injection, schedule: Q01DX009 (ip), vehicle: Klucel (hydroxypropylcellulose) (HPC)): 86 % of control
- T/C [3]: 100 % of control

SMILES: NCCSC(C[N+](=O)[O-])c1ccc2c(c1)OCO2 (configuration not stated)
- T/C (dose: 100.0 mg/kg/injection, schedule: Q04DX003 (ip), vehicle: saline with Tween-80): 93 % of control
- T/C (dose: 200.0 mg/kg/injection, schedule: Q04DX003 (ip), vehicle: saline with Tween-80): 98 % of control

SMILES: O=C(CI)OCCCl
- T/C (dose: 12.5 mg/kg/injection, schedule: Q01DX009 (ip), vehicle: other): 94 % of control
- T/C (dose: 25.0 mg/kg/injection, schedule: Q01DX009 (ip), vehicle: other): 97 % of control
- T/C (dose: 50.0 mg/kg/injection, schedule: Q01DX009 (ip), vehicle: other): 97 % of control

SMILES: CCCC(C(O)c1ccc(OC)cc1)C(O)(C(F)(F)F)C(F)(F)F (configuration not stated)
- T/C (dose: 100.0 mg/kg/injection, schedule: Q04DX003 (ip), vehicle: other): 97 % of control
- T/C (dose: 200.0 mg/kg/injection, schedule: Q04DX003 (ip), vehicle: other): 92 % of control
- T/C (dose: 400.0 mg/kg/injection, schedule: Q04DX003 (ip), vehicle: other): 92 % of control

SMILES: CC1([N+](=O)[O-])COP(=O)(NCc2cccnc2)OC1 (configuration not stated)
- T/C (dose: 50.0 mg/kg/injection, schedule: Q01DX001 (ip), vehicle: carboxymethylcellulose (CMC)): 103 % of control
- T/C (dose: 100.0 mg/kg/injection, schedule: Q01DX001 (ip), vehicle: carboxymethylcellulose (CMC)): 95 % of control
- T/C (dose: 200.0 mg/kg/injection, schedule: Q01DX001 (ip), vehicle: carboxymethylcellulose (CMC)): 113 % of control
- T/C (dose: 400.0 mg/kg/injection, schedule: Q01DX001 (ip), vehicle: carboxymethylcellulose (CMC)): 95 % of control

SMILES: CCCCCCc1cc2ccccc2cc1CCCC
- T/C [4]: 102 % of control
- T/C [5]: 100 % of control
- T/C [6]: 97 % of control
